{
  "source": "paper PMC9241695",
  "about": "“Selective Metal Chelation by a Thiosemicarbazone Derivative Interferes with Mitochondrial Respiration and Ribosome Biogenesis in Candida albicans” (Microbiology Spectrum, 2022)",
  "key": {"[1]": {"test_system": "human renal epithelial cell line HK2", "assay": "Cytotoxicity testing (MTT)", "format": "cell-based", "settings": "ratio of IC50 against HK2 to MIC80 against C. albicans SC5314", "protocol": "(§1) h (for C. albicans, C. krusei, C. tropicalis, C. parapsilosis) or 48 h (for C. neoformans, A. fumigatus). The MIC was determined based on visible growth inhibition compared with the control. All experiments were performed in duplicate.\n(§2) Cytotoxicity testing. The cell lines HK2 and 16HBE were used to evaluate the cytotoxicity of 19ak, 19k and 19t. Cells in DMEM containing 10% fetal bovine serum (Gibco) were seeded in 96-well tissue culture plates at a cell density of 1 × 10^4 cells/mL and incubated for 24 h to allow adhesion. The supernatant was then replaced with fresh DMEM containing various concentrations of 19ak, 19k and 19t. The plates were subsequently incubated for an additional 48 h at 37°C with 5% CO2, followed by the addition of 10 μL of MTT solution to each well and incubation at 37°C for 4 h.\n(§3) The effects of the compounds on cell proliferation were detected by measuring the absorbance at 570 nm in a microplate reader (BioTek, VT, USA). Three independent experiments were conducted. […]"}, "[2]": {"test_system": "human bronchial epithelial cell line 16HBE", "assay": "Cytotoxicity testing (MTT)", "format": "cell-based", "settings": "ratio of IC50 against 16HBE to MIC80 against C. albicans SC5314", "protocol": "as §1, §2, §3"}, "[3]": {"assay": "Cytotoxicity testing (MTT)", "format": "cell-based, human", "settings": "human, 48 h, MTT", "protocol": "as §1, §2, §3"}, "C. neoformans H99": {"test_system": "C. neoformans H99", "assay": "Antifungal susceptibility testing, microbroth dilution MIC", "format": "cell-based", "settings": "Cryptococcus neoformans, H99; C. neoformans wild-type strain; 48 h; read-out: MIC (μg/mL) against fungi H99", "text": "(§4) Compound library. The thiosemicarbazone derivatives Triapine and COTI-2 were purchased from Med Chem Express (MCE). The other 87 thiosemicarbazones used in this study were previously synthesized by our collaborators (1, 2). Their structures are shown in Table 1 and Table S1 to help the reader clearly understand the relationship between structure and activity.\n(§5) Strains and culture conditions. Clinically derived C. albicans isolates, including G5, F5, and Gu5, were kindly provided by Professor Joachim Morschhäuser of the University of Würzburg. Other clinical C. albicans isolates were kindly donated by Professor Qingguo Qi of Shandong University and Qianfoshan Hospital of Shandong Province Other Candida strains were obtained from Jinan Central Hospital.\n(§6) The zap1 mutant and its complemented strain were kindly provided by Professor Aaron P. Mitchell of Carnegie Mellon University (3). The C. neoformans strains used in this study was kindly donated by Professor Guojian Liao of Southwest University and A. fumigatus strain used in this study was provided by Professor Ling Lu of Nanjing Normal University. […]\n(§7) Antifungal susceptibility testing. To determine in vitro antifungal activities, the microbroth dilution method was carried out in RPMI1640 medium according to the guidelines of the Clinical and Laboratory Standards Institute (4, 5). The initial concentration in RPMI1640 medium was 1 × 10^3 CFU/mL for the C. albicans and C. neoformans suspensions but 1 × 10^4 CFU/mL for A. fumigatus. The range of final drug concentrations was 0.0156–64 μg/mL. The plates were incubated at35°C for 24 […]\n(§8) h (for C. albicans, C. krusei, C. tropicalis, C. parapsilosis) or 48 h (for C. neoformans, A. fumigatus). The MIC was determined based on visible growth inhibition compared with the control. All experiments were performed in duplicate. […]"}, "A. fumigatus AF293": {"test_system": "A. fumigatus AF293", "assay": "Antifungal susceptibility testing, microbroth dilution MIC", "format": "cell-based", "settings": "Aspergillus fumigatus, AF293; standard strain of A. fumigatus; 48 h; read-out: MIC (μg/mL) against fungi AF293", "text": "as §4, §5, §6, §7, §8"}, "C. albicans SC5314": {"test_system": "C. albicans SC5314", "assay": "Minimal fungicidal concentration (MFC)", "format": "cell-based", "settings": "Candida albicans, read-out: MFC against C. albicans SC5314"}, "[4]": {"test_system": "human hepatocellular carcinoma cell line HepG2", "assay": "Cytotoxicity testing (MTT)", "format": "cell-based", "settings": "ratio of IC50 against HepG2 to MIC80 against C. albicans SC5314"}, "[5]": {"assay": "Cytotoxicity testing (MTT)", "format": "cell-based, human", "settings": "human, HepG2 cells (hepatocellular carcinoma cell line)"}, "C. albicans G5": {"test_system": "C. albicans G5", "assay": "microbe, parasite or virus in culture", "format": "cell-based", "settings": "Candida albicans, G5", "text": "as §4, §5\nas §6, with “University. Before in vitro and in vivo experiments, all C. albicans strains were grown on YPD agar plates. After culturing at 30°C for 24 h, colonies of each strain were cultured in liquid YPD medium at 30°C with continuous shaking” for “University.”\nas §7, §8"}, "C. albicans Gu5": {"test_system": "C. albicans Gu5", "assay": "microbe, parasite or virus in culture", "format": "cell-based", "settings": "Candida albicans, GU5", "text": "as §4, §5\nas §6, with “University. Before in vitro and in vivo experiments, all C. albicans strains were grown on YPD agar plates. After culturing at 30°C for 24 h, colonies of each strain were cultured in liquid YPD medium at 30°C with continuous shaking” for “University.”\nas §7, §8"}, "C. albicans 28A": {"test_system": "C. albicans 28A", "assay": "Microbroth dilution MIC80", "format": "cell-based", "settings": "Candida albicans, 28A", "text": "as §4, §5\nas §6, with “University. Before in vitro and in vivo experiments, all C. albicans strains were grown on YPD agar plates. After culturing at 30°C for 24 h, colonies of each strain were cultured in liquid YPD medium at 30°C with continuous shaking” for “University.”\nas §7, §8"}, "C. albicans 11f": {"test_system": "C. albicans 11f", "assay": "Microbroth dilution MIC80", "format": "cell-based", "settings": "Candida albicans, 11F", "text": "as §4, §5\nas §6, with “University. Before in vitro and in vivo experiments, all C. albicans strains were grown on YPD agar plates. After culturing at 30°C for 24 h, colonies of each strain were cultured in liquid YPD medium at 30°C with continuous shaking” for “University.”\nas §7, §8"}, "C. albicans 28I": {"test_system": "C. albicans 28I", "assay": "Microbroth dilution MIC80", "format": "cell-based", "settings": "Candida albicans, 28I", "text": "as §4, §5\nas §6, with “University. Before in vitro and in vivo experiments, all C. albicans strains were grown on YPD agar plates. After culturing at 30°C for 24 h, colonies of each strain were cultured in liquid YPD medium at 30°C with continuous shaking” for “University.”\nas §7, §8"}, "C. albicans F5": {"test_system": "C. albicans F5", "assay": "Microbroth dilution MIC80", "format": "cell-based", "settings": "Candida albicans, F5", "text": "as §4, §5\nas §6, with “University. Before in vitro and in vivo experiments, all C. albicans strains were grown on YPD agar plates. After culturing at 30°C for 24 h, colonies of each strain were cultured in liquid YPD medium at 30°C with continuous shaking” for “University.”\nas §7, §8"}},
  "data": [
    {"smiles": "C/C(=N\\NC(=S)Nc1ccc(Br)cc1)c1ccccn1", "note": "[Compound 19t]", "values": [
      {"measurement": "Selectivity index HK2", "setting": "[1]", "value": 6.918},
      {"measurement": "Selectivity index 16HBE", "setting": "[2]", "value": 2.858},
      {"measurement": "IC50 at 48 h", "setting": "[3]; 16HBE cells (bronchial epithelial cell line), 16HBE cells", "value": 1.43, "unit": "µg/mL"},
      {"measurement": "IC50 at 48 h", "setting": "[3]; HK2 cells (renal epithelial cell line), HK2 cells", "value": 3.46, "unit": "µg/mL"},
      {"measurement": "MIC", "setting": "C. neoformans H99", "value": 0.031, "unit": "µg/mL"},
      {"measurement": "MIC", "setting": "A. fumigatus AF293", "value": 0.125, "unit": "µg/mL"},
      {"measurement": "MFC", "setting": "C. albicans SC5314", "value": 64, "unit": "µg/mL"},
      {"measurement": "Selectivity index HepG2", "setting": "[4]", "value": 2.778},
      {"measurement": "IC50", "setting": "[5]", "value": 1.39, "unit": "µg/mL"},
      {"measurement": "MIC80", "setting": "C. albicans G5", "value": 1, "unit": "µg/mL"},
      {"measurement": "MIC80", "setting": "C. albicans Gu5", "value": 1, "unit": "µg/mL"},
      {"measurement": "MIC80", "setting": "C. albicans 28A", "value": 0.25, "unit": "µg/mL"},
      {"measurement": "MIC80", "setting": "C. albicans 11f", "value": 0.25, "unit": "µg/mL"},
      {"measurement": "MIC80", "setting": "C. albicans 28I", "value": 0.5, "unit": "µg/mL"},
      {"measurement": "MIC80", "setting": "C. albicans F5", "value": 0.25, "unit": "µg/mL"}
    ]}
  ]
}
